According to US12065436B2, “Cardiac sarcomere inhibitors” (Cytokinetics, Inc., priority 2018, dated 2024):

Target: bovine cardiac myofibrils (full-length cardiac myosin ATPase in the native sarcomere) (Bos taurus (Bovine), UniProt Q9BE39)
Assay: Skinned bovine cardiac myofibril ATPase assay (PK/LDH-coupled)
Assay type: biochemical
Conditions: Ca2+ activating to 75% of maximal rate; for CDMF75 IC15: concentration giving 15% inhibition; for IC50: read-out: CDMF75 IC50
Outline: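 Triton-skinned bovine left-ventricle myofibrils (1 mg/mL) in PM 12 buffer (12 mM PIPES, 2 mM MgCl2, pH 6.8) with 50 μM ATP, 0.6 mM EGTA and CaCl2 set for 50% or 75% activation. Steady-state ATPase inhibition followed by PK/LDH-coupled NADH oxidation at 340 nm.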

Sequence of bovine cardiac myofibrils (full-length cardiac myosin ATPase in the native sarcomere) (Q9BE39 whole entry): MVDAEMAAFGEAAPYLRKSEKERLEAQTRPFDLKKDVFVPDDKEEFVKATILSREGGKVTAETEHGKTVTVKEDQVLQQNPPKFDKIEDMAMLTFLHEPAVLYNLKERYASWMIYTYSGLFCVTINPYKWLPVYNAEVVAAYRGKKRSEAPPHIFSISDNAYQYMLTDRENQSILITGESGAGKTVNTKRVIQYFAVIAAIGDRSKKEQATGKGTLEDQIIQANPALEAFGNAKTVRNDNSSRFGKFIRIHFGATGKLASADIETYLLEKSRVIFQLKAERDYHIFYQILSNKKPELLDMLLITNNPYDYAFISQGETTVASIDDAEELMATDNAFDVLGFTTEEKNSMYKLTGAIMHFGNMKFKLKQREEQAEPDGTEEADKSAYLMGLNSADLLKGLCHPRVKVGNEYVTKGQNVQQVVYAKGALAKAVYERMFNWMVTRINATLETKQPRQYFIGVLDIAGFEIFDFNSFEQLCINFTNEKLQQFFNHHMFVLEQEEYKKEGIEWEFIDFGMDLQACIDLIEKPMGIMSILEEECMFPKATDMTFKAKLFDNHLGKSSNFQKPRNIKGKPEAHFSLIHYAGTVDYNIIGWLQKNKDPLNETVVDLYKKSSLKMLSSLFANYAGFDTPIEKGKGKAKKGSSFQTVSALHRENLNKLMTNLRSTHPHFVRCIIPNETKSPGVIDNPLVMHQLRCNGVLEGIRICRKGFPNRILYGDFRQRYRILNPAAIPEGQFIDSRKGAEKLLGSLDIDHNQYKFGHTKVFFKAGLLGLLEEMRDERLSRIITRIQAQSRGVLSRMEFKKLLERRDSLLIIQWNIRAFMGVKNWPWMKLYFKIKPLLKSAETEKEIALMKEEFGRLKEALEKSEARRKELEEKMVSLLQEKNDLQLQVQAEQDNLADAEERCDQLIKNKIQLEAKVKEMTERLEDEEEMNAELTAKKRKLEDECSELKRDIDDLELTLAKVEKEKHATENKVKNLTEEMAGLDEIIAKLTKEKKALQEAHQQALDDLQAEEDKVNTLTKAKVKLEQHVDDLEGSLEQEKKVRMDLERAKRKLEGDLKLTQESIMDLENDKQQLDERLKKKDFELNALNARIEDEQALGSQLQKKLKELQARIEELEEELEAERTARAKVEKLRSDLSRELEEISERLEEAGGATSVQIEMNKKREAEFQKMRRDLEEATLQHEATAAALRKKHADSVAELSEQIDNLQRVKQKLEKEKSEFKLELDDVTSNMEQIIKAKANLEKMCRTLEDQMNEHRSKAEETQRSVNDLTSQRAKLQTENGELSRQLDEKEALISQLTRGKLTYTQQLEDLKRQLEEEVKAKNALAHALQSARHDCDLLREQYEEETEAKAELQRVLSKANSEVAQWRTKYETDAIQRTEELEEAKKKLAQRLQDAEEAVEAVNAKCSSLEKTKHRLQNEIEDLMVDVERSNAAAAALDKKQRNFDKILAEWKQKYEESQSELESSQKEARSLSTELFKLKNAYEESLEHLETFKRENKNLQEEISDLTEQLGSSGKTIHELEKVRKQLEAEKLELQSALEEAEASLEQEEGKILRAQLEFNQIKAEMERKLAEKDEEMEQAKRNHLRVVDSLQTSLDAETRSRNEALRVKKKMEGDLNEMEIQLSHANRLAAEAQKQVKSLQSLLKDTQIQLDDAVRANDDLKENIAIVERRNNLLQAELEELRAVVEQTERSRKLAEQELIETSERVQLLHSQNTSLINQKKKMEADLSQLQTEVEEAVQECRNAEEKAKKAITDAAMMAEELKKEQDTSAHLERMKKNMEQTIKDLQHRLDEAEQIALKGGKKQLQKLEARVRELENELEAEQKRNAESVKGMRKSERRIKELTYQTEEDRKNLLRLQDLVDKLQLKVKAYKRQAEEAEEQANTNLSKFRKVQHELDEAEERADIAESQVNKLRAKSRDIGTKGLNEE
Sequence of bovine cardiac myofibrils (full-length cardiac myosin ATPase in the native sarcomere) (P85100 whole entry partner): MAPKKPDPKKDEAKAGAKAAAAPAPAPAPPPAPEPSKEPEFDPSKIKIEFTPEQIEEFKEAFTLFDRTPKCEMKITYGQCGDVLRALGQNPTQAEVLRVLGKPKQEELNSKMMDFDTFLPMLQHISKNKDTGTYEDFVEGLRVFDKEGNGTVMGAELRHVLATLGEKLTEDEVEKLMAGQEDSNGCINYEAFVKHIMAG
Sequence of bovine cardiac myofibrils (full-length cardiac myosin ATPase in the native sarcomere) (Q3SZE5 whole entry partner): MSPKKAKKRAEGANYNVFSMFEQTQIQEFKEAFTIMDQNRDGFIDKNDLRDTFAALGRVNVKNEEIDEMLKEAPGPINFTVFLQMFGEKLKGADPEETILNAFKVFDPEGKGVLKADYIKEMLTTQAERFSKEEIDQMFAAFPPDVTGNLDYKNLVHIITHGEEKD

Row | Compound | CDMF75 IC15 | IC50
1 | Cc1nc(-c2ccc3c(c2)OCC3NC(=O)c2oc(C)nc2C)no1 (centres unmarked) [Compound 159, 2,4-dimethyl-N-(6-(5-methyl-1,2,4-oxadiazol-3-yl)-2,3-dihydrobenzofuran-3-yl)oxazole-5-carboxamide] | 1900 nM | 8400 nM
2 | Cc1cnoc1C(=O)N[C@@H]1CCc2cc(-c3noc(C4CC4)n3)ccc21 [Compound 115, (R)-N-(5-(5-cyclopropyl-1,2,4-oxadiazol-3-yl)-2,3-dihydro-1H-inden-1-yl)-4-methylisoxazole-5-carboxamide] | 300 nM | 900 nM
3 | CCc1nc(-c2ccc3c(c2)CC[C@H]3NC(=O)OC2CCC2)no1 [Compound 321, cyclobutyl (R)-(5-(5-ethyl-1,2,4-oxadiazol-3-yl)-2,3-dihydro-1H-inden-1-yl)carbamate] | 400 nM | 1300 nM
4 | Cn1nccc1C(=O)N[C@@H]1CCc2cc(-c3nc(C4CC4)no3)ccc21 [Compound 261, (R)—N-(5-(3-cyclopropyl-1,2,4-oxadiazol-5-yl)-2,3-dihydro-1H-inden-1-yl)-1-methyl-1H-pyrazole-5-carboxamide] | 400 nM | 1200 nM
5 | [2H]C([2H])([2H])c1nc(-c2ccc3c(c2)CC[C@H]3NC(=O)c2ccnn2C)no1 [Compound 242, (R)-1-methyl-N-(5-(5-(methyl-d3)-1,2,4-oxadiazol-3-yl)-2,3-dihydro-1H-inden-1-yl)-1H-pyrazole-5-carboxamide] | 500 nM | 1500 nM
6 | CCc1nc(-c2ccc3c(c2)CC[C@H]3NC(=O)C2CCCC(=O)N2)no1 (stereo partly drawn) [Compound 354, N-((R)-5-(5-ethyl-1,2,4-oxadiazol-3-yl)-2,3-dihydro-1H-inden-1-yl)-6-oxopiperidine-2-carboxamide] | 34100 nM | > 39200 nM

Further lines, results first:

Row | CDMF75 IC15 | IC50 | Compound
7 | 400 nM | 1600 nM | CCc1nc(-c2ccc3c(c2)CC[C@H]3NC(=O)c2ccccn2)no1 [Compound 623, (R)-N-(5-(5-ethyl-1,2,4-oxadiazol-3-yl)-2,3-dihydro-1H-inden-1-yl)picolinamide]
8 | 600 nM | 2200 nM | CCc1nc(-c2ccc3c(c2)CC[C@H]3NC(=O)c2cnnc(C)c2)no1 [Compound 650, (R)-N-(5-(5-ethyl-1,2,4-oxadiazol-3-yl)-2,3-dihydro-1H-inden-1-yl)-6-methylpyridazine-4-carboxamide]
9 | 1900 nM | 7700 nM | CC(=O)N[C@@H]1CCc2cc(-c3noc(C4CCC4)n3)ccc21 [Compound 406, (R)-N-(5-(5-cyclobutyl-1,2,4-oxadiazol-3-yl)-2,3-dihydro-1H-inden-1-yl)acetamide]
10 | 1100 nM | 4000 nM | CCOC(=O)C(C)c1nc(-c2ccc3c(c2)CC[C@H]3NC(=O)c2ccnn2C)no1 (stereo partly drawn) [Compound 492, ethyl 2-(3-((R)-1-(1-methyl-1H-pyrazole-5-carboxamido)-2,3-dihydro-1H-inden-5-yl)-1,2,4-oxadiazol-5-yl)propanoate]
11 | 11800 nM | 39200 nM | CC(=O)OCCc1nc(-c2ccc3c(c2)CC[C@H]3NC(=O)c2cnn(C)c2)no1 [Compound 548, 2-(3-{(1R)-1-[(1-methylpyrazol-4-yl)carbonylamino]indan-5-yl}-1,2,4-oxadiazol-5-yl)ethyl acetate]
12 | 2200 nM | 13500 nM | CCc1nc(-c2ccc3c(c2)OCCC3NC(=O)c2cnn(C)c2)no1 (centres unmarked) [Compound 534, N-(7-(5-ethyl-1,2,4-oxadiazol-3-yl)chroman-4-yl)-1-methyl-1H-pyrazole-4-carboxamide]
13 | 3600 nM | 14600 nM | COC(C)c1nc(-c2ccc3c(c2)CC[C@H]3NC(=O)c2cnn(C)c2)no1 (stereo partly drawn) [Compound 551, N-((1R)-5-(5-(1-methoxyethyl)-1,2,4-oxadiazol-3-yl)-2,3-dihydro-1H-inden-1-yl)-1-methyl-1H-pyrazole-4-carboxamide]
